Tests used:
[1] = tested on: human PBMCs; experiment: LPS-induced TNF-α and IL-1β release in human PBMCs; assay type: cell-based; details: LPS 100 ng/mL
Description: Blood from healthy volunteers was collected upon informed consent. PBMCs were obtained by Ficoll gradient centrifugation in Histopaque-1077 (Sigma-Aldrich, St Louis, Missouri, United States) using SepMate™ isolation tubes from STEMCELL™ according to the manufacturer’s instructions. Isolated PBMCs were resuspended in RPMI 1640 supplemented with 10% heat-inactivated FBS.
(§1) 100.000 of freshly isolated PBMCs or monocytes were mixed with stimulants to a final volume of 160 μL/well in round bottom 96-well plates.
(§2) After stimulation, supernatants were collected, centrifuged, and assayed for cytokine secretion, while cells were assayed for viability.
TNF-α and IP-10 were quantified in cell supernatants using DuoSet ELISA kits from R&D Systems and human IL-1β using Instant ELISA™ Kit from Invitrogen, according to the manufacturer’s instructions. Absorbance was read with a BioTek Synergy HT Microplate Readers. […]

[2] = tested on: primary human monocytes; experiment: TNF-α and IL-1β secretion in primary human monocytes incubated with CL; assay type: cell-based; details: with NLRP3 inhibitor MCC950
Description: Human monocytes were isolated from PBMCs by immunomagnetic negative selection using the EasySep™ human monocyte enrichment kit without CD16 depletion (STEMCELL™ Technologies).
as §1, §2
TNF-α and IP-10 were quantified in cell supernatants using DuoSet ELISA kits from R&D Systems and human IL-1β using Instant ELISA™ Kit from Invitrogen, according to the manufacturer’s instructions. Absorbance was read with a BioTek Synergy HT Microplate Readers.
Fig. 3 Saturated but not unsaturated CLs have pro-inflammatory properties. a RAW-Blue™ cells were incubated overnight with the indicated amount of CL or LPS, supernatants were collected, and NF-κB activation quantified via Quanti-Blue™ test and reported here as fold induction as compared to control. Unpaired t test: differences with respect to the control (Ctrl) are not significant if p > 0.05 (no symbol); *p ≤ 0.0007. b Immortalized BMDM cells were incubated overnight with the indicated amount of CL or LPS; supernatants were collected and TNF-α quantified via ELISA assay. c, d Primary human monocytes were incubated overnight with the indicated amount of CL or LPS with or without the NLRP3 inhibitor MCC950, supernatants were collected, and TNF-α and IL-1β were quantified via ELISA assay. Graphs are representative of experiments from six different donors. Unpaired t test: differences with respect to the control (Ctrl) are not significant if p > 0.05 (no symbol); *p ≤ 0.021. Each bar represents the mean + standard deviation of three biological replicates (n = 3). Graphs are representative of at least three independent experiments
C18:0 and C18:2 CLs’ pro-inflammatory activities were validated in primary monocytes isolated from human donor blood. C18:0 CL but not C18:2 CL reproduced LPS activity inducing TNF-α and IL-1β secretion in a dose-dependent manner (Fig. 3c, d).

Q: CC(C)(O)c1coc(S(=O)(=O)NC(=O)Nc2c3c(cc4c2CCC4)CCC3)c1 [MCC950] was tested. Which “inhibition of LPS-induced TNF-α secretion” value ([1]; 4 h) did it give?
A: Its value is “not”.

Q: What about the “inhibition of LPS-induced IL-1β secretion” value ([1]; 16 h) of the same compound?
A: Its value is “able to inhibit”.

Q: And the “inhibition of saturated CL-induced IL-1β secretion” value [2]?
A: The value was “inhibited”.
